The values below come from ChEMBL document CHEMBL6087397, “H2S-releasing oridonin derivatives with improved antitumor activity by inhibiting the PI3K/AKT pathway” (Bioorg Med Chem, 2024).

Structures are written as SMILES. The source made the active and inactive calls. The rule behind the calls is not given here.

In series [1] the test system is MIA PaCa-2. The experiment in a line: Antiproliferative activity against human MIA PaCa-2 cells assessed as inhibition of cell proliferation incubated for 48 hrs by CCK-8 assay. The settings on record: MIA PaCa-2, 48 h. Type of series: functional, cell-based. For orientation: Tetrazolium assays rely on reduction of a dye to a coloured formazan, in cell work by metabolically active cells.

In series [2] the test system is MCF7. Put plainly: Inhibition of colony formation in human MCF7 cells assessed as reduction in number of colonies at 1.0 to 2.0 uM incubated for […] by crystal violet staining based microscopic analysis. The series is classed as functional, cell-based. As to conditions: dose 1-2 µM.
Series [3] deals with MIA PaCa-2. The experiment in a line: Inhibition of cell migration in human MIA PaCa-2 cells assessed as wider scratch areas at 0.5 to 1.0 uM incubated for 48 hrs by scratch assay. The series is classed as functional, cell-based. As to conditions: dose 0.5-1 µM.
The test system of series [4] is MCF7. Put plainly: Inhibition of cell invasion in human MCF7 cells assessed as decrease in number of invading cells at 0.5 to 1.0 uM incubated for 48 hrs by crystal violet staining based transwell microscopic analysis. Type of series: functional. As to conditions: dose 0.5-1 µM.
The test system of series [5] is MIA PaCa-2. The experiment in a line: Inhibition of cell invasion in human MIA PaCa-2 cells assessed as decrease in number of invading cells at 0.5 to 1.0 uM incubated for 48 hrs by crystal violet staining based transwell microscopic analysis relative to control. Type of series: functional. The settings on record: dose 0.5-1 µM.
Series [6] relates to MCF7. Put plainly: Induction of apoptosis in human MCF7 cells assessed as increase in fluorescence intensity at 2.5 uM incubated for 48 hrs by Hoechst 33342 staining based fluorescence microscopic analysis. Type of series: functional, cell-based.
Series [7] deals with MCF7. Put plainly: Induction of mitochondrial dysfunction in human MCF7 cells assessed as decrease in ATP level incubated for 48 hrs by ATP assay kit. The series is classed as functional, cell-based. The settings on record: dose 2.5-10 µM.
The subject of series [8] is MCF7. The experiment in a line: Induction of apoptosis in human MCF7 cells assessed as upregulation of Bax/Bcl-2 ratio at 1.25 to 5.0 uM incubated for 48 hrs by Western blotting analysis. The series is classed as functional, cell-based. The settings on record: dose 1.25-5 µM. In general terms: Immunoblotting shows a protein as a band on a membrane.
For series [9], the system named is MCF7. The experiment in a line: Induction of apoptosis in human MCF7 cells assessed as increase in cleaved caspase-9 level at 1.25 to 5.0 uM incubated for 48 hrs by Western blotting analysis. The settings on record: dose 1.25-5 µM. The series is classed as functional, cell-based.
For series [10], the system named is MCF7. The experiment in a line: Induction of mitochondrial apoptosis pathway in human MCF7 cells assessed as downregulation of pro-caspase-3 expression at 1.25 to 5.0 uM incubated for 48 hrs by Western blotting analysis. The series is classed as functional, cell-based. As to conditions: dose 1.25-5 µM.
Series [11] has as its system MIA PaCa-2. Put plainly: Induction of apoptosis in human MIA PaCa-2 cells assessed as upregulation of cleaved caspase-3 expression at 1.25 to 5.0 uM incubated for 48 hrs by Western blotting analysis. The series is classed as functional, cell-based. As to conditions: dose 1.25-5 µM.
Series [12] relates to MIA PaCa-2. Put plainly: Induction of apoptosis in human MIA PaCa-2 cells assessed as upregulation of cleaved PARP expression at 1.25 to 5.0 uM incubated for 48 hrs by Western blotting analysis. Type of series: functional, cell-based. As to conditions: dose 1.25-5 µM.
Series [13] is described as follows: Toxicity in female BALB/c mouse xenografted with mouse 4T1 cells assessed as morphological change in heart at 10 mg/kg, ip administered every 2 days by H and E staining based analysis. The series is classed as organism-based. As to conditions: in vivo, 48 h.
Series [14] is described as follows: Toxicity in female BALB/c mouse xenografted with mouse 4T1 cells assessed as morphological change in lung at 10 mg/kg, ip administered every 2 days by H and E staining based analysis. The settings on record: in vivo, 48 h. Type of series: organism-based.

With `C=C1C(=O)[C@]23[C@H](OC(=O)c4ccc(N=C=S)cc4)[C@H]1CC[C@H]2[C@@]12CO[C@]3(O)[C@@H](O)[C@@H]1C(C)(C)CC[C@@H]2O`, the IC50 in the series on MIA PaCa-2 [1] came to 2140 nM. For the same compound, the inhibition result in the series on MCF7 [2], in the series on MIA PaCa-2 [3] and with MCF7 [4] was “Active” in each case. Besides, the “inhibition (INH)” value with MIA PaCa-2 [5] is roughly 70%. For the same compound, the outcome with MCF7 [6], in the series with MCF7 [8], in the series on MCF7 [9], in the series on MCF7 [10], in the series on MIA PaCa-2 [11] and with MIA PaCa-2 [12] was Active. Moreover, the Activity result is “Dose-dependent-effect” in the series with MCF7 [7], “Non-toxic” in [13] and “Non-toxic” in series [14].

As a reminder, the IC50 is the concentration needed to halve the response being measured.
